In data set [1] the test system is Mycobacterium tuberculosis. Briefly: Antimycobacterial activity against Mycobacterium tuberculosis H37Rv ATCC 27294 after 7 days by microplate alamar blue assay. The following applies: H37Rv ATCC 27294, 168 h. The class given is functional. On the technique in general: Alamar Blue is a resazurin reagent that responds to reducing activity.
In data set [2] the test system is Human immunodeficiency virus. Briefly: Antiviral activity against HIV at subtoxic concentration. It is filed as functional, organism-based.
Data set [3] in a line: Cytotoxicity against human embryonic lung cells. It is filed as cell-based.
Data set [4] can be described thus: Cytotoxicity against cat CRFK cells. The class given is cell-based, Felis catus.
A further data set has as its system L1210. Briefly: Cytostatic activity against mouse L1210 cells assessed as inhibition of cell proliferation after 2 days by particle counter assay. The following applies: L1210, 48 h. The class given is functional, cell-based.
The test system of a further data set is FM3A. In words: Cytostatic activity against mouse FM3A cells assessed as inhibition of cell proliferation after 2 days by particle counter assay. It is filed as functional, cell-based. The following applies: 48 h.
The subject of the next data set is CCRF-CEM. Briefly: Cytostatic activity against human CEM cells assessed as inhibition of cell proliferation after 3 days by particle counter assay. It is filed as functional, cell-based. The following applies: 72 h.
The next data set deals with HeLa. In words: Cytostatic activity against human HeLa cells assessed as inhibition of cell proliferation after 3 days by particle counter assay. The class given is functional, cell-based. The following applies: 72 h.
Data set [5] has as its system Mycobacterium tuberculosis. In words: Antimycobacterial activity against Mycobacterium tuberculosis H37Rv ATCC 27294 at […] after 7 days by microplate alamar blue assay. It is filed as functional. The following applies: H37Rv ATCC 27294, 168 h.

≈ marks a conversion by molar mass, not a printed value. Calls of active or inactive are those of the source.

With `O=[N+]([O-])c1cn2c(n1)OC[C@@H](OCc1ccc(OC(F)(F)F)cc1)C2` [PRETOMANID], the MIC (in general, the smallest concentration in the dilution series that meets the test's criterion for growth inhibition) in [1] turned out to be 0.48 µM (≈ 0.172 µg/mL).
Take `CCOC(=O)c1c(C)nc(Cl)nc1-c1ccccc1`: in data set [2], the result was inactive.
Take `COC(=O)c1c(C)nc(NCc2ccccc2)nc1-c1ccccc1`: the MCC in [3] and in data set [4] was 4 µg/mL throughout.
Molecule `NNC(=O)c1ccncc1` [ISONIAZID] returned an MIC in [1] of 0.12 µM (≈ 0.0165 µg/mL).
`CCOC(=O)c1cnc(NCc2ccccc2)nc1C`: the IC50 (commonly the midpoint of a concentration-inhibition curve) in the data set with L1210 was found to be 378 µM; in the data set with FM3A it was 306 µM; with CCRF-CEM it was 480 µM; with HeLa, 147 µM. In addition, the result in data set [2] was inactive.
On the same counts, the results for `CCOC(=O)c1c(C)nc(NCCc2c[nH]c3ccccc23)nc1-c1ccccc1` are 28 µM, 34 µM, 31 µM, 23 µM and “inactive”.
Regarding `COC(=O)c1c(C)nc(Cl)nc1-c1ccccc1`, the result in [2] was inactive.
Regarding `CCOC(=O)c1c(C)nc(N2CCOCC2)nc1-c1ccccc1`, in data set [5], the inhibition (as a rule, the percentage by which the read-out fell short of the control) at […] came to 96%. This molecule had an MIC in data set [1] of 125 µM (≈ 41 µg/mL). Moreover, the IC50 with L1210 is over 500 µM; in the data set with FM3A, over 500 µM; in the data set on CCRF-CEM, at least 500 µM; in the data set with HeLa, at least 500 µM. Moreover, the outcome in data set [2] was inactive.
`COc1c(N2C[C@@H]3CCCN[C@@H]3C2)c(F)cc2c(=O)c(C(=O)O)cn(C3CC3)c12` [MOXIFLOXACIN] had an MIC in data set [1] of 0.47 µM (≈ 0.189 µg/mL).

The values above are taken from ChEMBL document CHEMBL1781930, “Facile transformation of Biginelli pyrimidin-2(1H)-ones to pyrimidines. In vitro evaluation as inhibitors of Mycobacterium tuberculosis and modulators of cytostatic activity” (Eur J Med Chem, 2011).
